# Data taken from patent publication US9029419B2, “Use of zinc N-acetyltaurinate” (TRI-INOV, priority 2008, dated 2015).
# Read-outs that look alike come from different tables or passages of the source.
# What was measured:
# ARPE-19 cells [1] = test: Comparative assay No. 1: effective doses of taurine and ZnSO4, ARPE-19 cell proliferation; type: cell-based, human
# Method: (§1) In the assays hereinafter described, the ARPE-19 human retinal pigmented epithelial cell line was used.
# (§2) ARPE-19 cells grown in an appropriate medium [mixture of DMEM [Dulbecco's modified Eagle's medium) and Ham's F12 medium] containing 10% of heat-inactivated fetal calf serum; 2 mM glutamine; 0.1 mM of minimum essential medium; a solution of non-essential amino acids and gentamicin sulfate, in 96-well microplates, were exposed to various concentrations of an aqueous hydrogen peroxide solution (H2O2) being toxic for these cells. The cellular levels of ATP were measured using the commercially available assay which measures ATP production, “ATPLite-M”, manufactured by Perkin Elmer, using a multiplate reader from Perkin Elmer Life Sciences, Boston, Mass. This assay is based on the principle that ATP production is dependent on cell viability and that a decrease or increase in ATP reflects a corresponding alteration in cell viability.
# In this assay, the effect of taurine or of N-acetylated taurine and of zinc sulfate on ARPE-19 cell proliferation was compared.
# ARPE-19 cells [2] = test: Comparative assay No. 2: cytoprotective effect in oxidizing medium (H2O2); type: cell-based, human; conditions: for protection against oxidative stress (ATP production): then H2O2 700 μM for 24 hours; for effect on the production of ATP by ARPE-19 cells treated and then exposed to H2O2: summary statement
# Method: The cells were then subjected, for 24 hours, to treatment with aqueous hydrogen peroxide solution at 700 μM.
# lipofuscin accumulation = test: Intracellular accumulation of lipofuscin in retina, prostate and hippocampus of aged rats (fluorescence image analysis); type: in vivo, Sprague-Dawley albino rats; conditions: 40 mg/kg per os once a day for 4 weeks, vs control animals (carrier)
# Method: The activity of ATA-Zn on aging was measured by determining the amount of lipofuscin in certain tissues in aged rats (retina, prostate and hippocampus).
# Male Sprague-Dawley albino rats, aged 16 months, were placed in standard plastic cages, in groups of 5, with water and food ad libitum. The living conditions of the animals were the following: day:night light cycle, 12:12 h, constant temperature of 22±2° C. and relative humidity of 60%.
# For the chronic treatment, ATA-Zn was administered to the rats, per os, once a day, for 4 weeks, at the dose of 40 mg/kg (n=6). The control animals received only water (carrier) for the same period of time (n=6). 24 hours after the end of the treatment, the rats were anesthetized with equithesin ([…], i.p.) and perfused transcardially with 1% paraformaldehyde and 1.25% glutaraldehyde in a 0.1% sodium cacodylate buffer (pH 7.4) obtained from arsenous anhydride and potassium acetate.
# The samples of the tissues taken (retina, prostate and hippocampus) were then cut into small pieces (1 mm^3) on a cryostat and added to a mixture of formaldehyde and glutaraldehyde in a cacodylate buffer for 2 hours. The samples were then mixed with osmium tetroxide, dehydrated in increasing concentrations of acetone and toluene and, finally, embedded into blocks of resin (EPON resin). The pieces of tissues thus processed were examined under an Olympus BX-60 fluorescence microscope.
# The fluorescence in all the tissues was quantified using an image analysis system (KS 300; Karl Zeiss). The analysis was carried out by measuring the percentage surface area hidden by the presence of fluorescence and compared with a standard zone of 2000 μm^2 (lipofuscin fluorescence expressed as % surface area relative to the standard zone) using an ×40 objective magnification and a Zeiss Sound Vision digital microscope video camera (total enlargement on the computer screen ×7500). The values measured in the areas with no fluorescence in the pieces of tissues were subtracted, as background noise, from the resulting binary image. […]
# ARPE-19 cells [3] = test: Assay 1: effective doses of ATA-Zn and its toxicity, ATP production (ATPLite-M); type: cell-based, human; conditions: 24 hours after addition
# Method: as §1
# (§3) ARPE-19 cells grown in an appropriate medium [mixture of DMEM [Dulbecco's modified Eagle's medium) and Ham's F12 medium] containing 10% of heat-inactivated fetal calf serum; 2 mM glutamine; 0.1 mM of minimum essential medium; a solution of non-essential amino acids and gentamicin sulfate, in 96-well microplates, were exposed to various concentrations of an aqueous hydrogen peroxide solution (H2O2) being toxic for these cells. The cellular levels of ATP were measured using the commercially available assay which measures ATP production, “ATPLite-M”, manufactured by Perkin Elmer, using a multiplate reader from Perkin Elmer Life Sciences, Boston, Mass. […]
# The ARPE-19 cells were treated with various concentrations of ATA-Zn (10^−3 to 10^−9 M) dissolved in a carrier consisting of a serum-free culture medium containing 0.01% of DMSO (concentration known not to affect cell viability). The ATP production by the ARPE-19 cells thus treated was determined 24 hours after the addition of ATA-Zn. The ATP production by control cells treated only with the serum-free culture medium containing 0.01% of DMSO (carrier) was also determined.
# ARPE-19 cells [4] = test: Assay 2: anti-oxidative stress cytoprotective effect, ATP production after H2O2; type: cell-based, human; conditions: 1.5 hours before H2O2 700 μm
# Method: as §1
# (§4) In order to assess the protective role of ATA-Zn with respect to an oxidative stress of the retinal epithelium, the following experimental model was used.
# as §2
# (§5) The protective effect of ATA-Zn was assayed by treating the ARPE-19 cells with ATA-Zn and subsequently exposing them to the aqueous hydrogen peroxide solution. Various exposure times and various doses were used. Comparative assays were also carried out. The results of these assays are reported in FIGS. 5 to 9, which are graphs showing the ATP production, expressed as a percentage relative to the ATP production by control cells (having received only the carrier) as a function of the concentrations of H2O2, of ATA-Zn or of the comparative substances.
# In this assay, the concentrations of ATA-Zn which induce a significant ATP production via the ARPE-19 cells were used, and then, after 1.5 hours, the cells were subjected to a treatment with H2O2 at the toxic dose of 700 μm.
# ARPE-19 cells [5] = test: Assay 3: cytoprotective effect of ATA-Zn on cells subjected to various concentrations of H2O2; type: cell-based, human; conditions: 10^−8 M, one and a half hours before exposure to H2O2
# Method: as §1, §4, §3
# as §5, with “Various exposure times and various doses were used. Comparative assays were also carried out.” left out, “substances. […]” for “substances.”
# ARPE-19 cells [6] = test: Comparative assay No. 3: comparison with the known antioxidants DHA, lutein and zeaxanthin; type: cell-based, human
# Method: as §1, §2
# as §5, with “Various exposure times and various doses were used. Comparative assays were also carried out.” left out, “substances. […]” for “substances.”
# [7] = Solubility of the prepared product; type: physicochemical; conditions: white powder
solubility in ethanol [7],solubility in water [7],Compound,proliferative effect on the ARPE-19 cells (ARPE-19 cells [1]; 30 μM and 10^−8 M),protection against oxidative stress (ATP production) (ARPE-19 cells [2]; 30 μM pretreatment),protection against oxidative stress (ATP production) (ARPE-19 cells [2]; 10^−8 M pretreatment),effect on the production of ATP by ARPE-19 cells treated and then exposed to H2O2 (ARPE-19 cells [2]),proliferative effect on the ARPE-19 cells (ARPE-19 cells [1]; 2 mM and 10^−8 M),protection against oxidative stress (ATP production) (ARPE-19 cells [2]; pretreatment),lipofuscin fluorescence (% surface area) in the hippocampus (lipofuscin accumulation),lipofuscin fluorescence (% surface area) in the prostate (lipofuscin accumulation),lipofuscin fluorescence (% surface area) in the retina (lipofuscin accumulation),ATP production / cell viability (toxicity) (ARPE-19 cells [3]; 10^−3 M),"ATP production / cell viability (ARPE-19 cells [3]; 10^−9 M, 10^−8 M and 10^−7 M)",protection against oxidative stress (ATP production) (ARPE-19 cells [4]; 10^−7 M),protection against oxidative stress (ATP production) (ARPE-19 cells [4]; 10^−8 M),protection against oxidative stress (ATP production) (ARPE-19 cells [4]; 10^−9 M),protection against oxidative stress induced by various concentrations of H2O2 (ATP production) (ARPE-19 cells [5]),"effect on ATP production compared with DHA, lutein and zeaxanthin (ARPE-19 cells [6])","effect on ATP production compared with DHA, lutein and zeaxanthin (ARPE-19 cells [6]; listed as zinc N-acetyltaurinate)"
–,–,O=S(=O)([O-])[O-].[Zn+2] [zinc sulfate],neither zinc sulfate nor taurine at the various concentrations used were capable of inducing a significant proliferative effect,not capable of protecting the cells,protective effect which is less than that of ATA-Zn,no effect,–,–,–,–,–,–,–,–,–,–,–,–,–
–,–,NCCS(=O)(=O)O [taurine],–,–,–,no effect,neither zinc sulfate nor taurine at the various concentrations used were capable of inducing a significant proliferative effect,not capable of protecting the cells,–,–,–,–,–,–,–,–,–,–,–
poorly soluble in ethanol,soluble in water,zinc N-acetyltaurinate [ATA-Zn],–,–,–,has an effect,–,protect the ARPE-19 cells against oxidative stress,significant reduction,significant reduction,significant reduction,toxic,capable of inducing an increase in cell viability,potentiates the toxic effect of H2O2,capable of protecting the cells against oxidative stress,not effective,capable of protecting the ARPE-19 cells against oxidative stress,effect comparable to the known antioxidants,virtually identical to or even greater than
